Experimental data as given in US9206412B2, “Thioxothiazolidine inhibitors” (Colorado State University Research Foundation, priority 2012, dated 2015).
Like-named read-outs stand apart in the source and are kept apart here.

Columns and labels:
[1] = biological target: T1, dengue virus capping enzyme (Dengue virus type 2, UniProt P29990); format: binding
T1 sequence (P29990 2492-2758): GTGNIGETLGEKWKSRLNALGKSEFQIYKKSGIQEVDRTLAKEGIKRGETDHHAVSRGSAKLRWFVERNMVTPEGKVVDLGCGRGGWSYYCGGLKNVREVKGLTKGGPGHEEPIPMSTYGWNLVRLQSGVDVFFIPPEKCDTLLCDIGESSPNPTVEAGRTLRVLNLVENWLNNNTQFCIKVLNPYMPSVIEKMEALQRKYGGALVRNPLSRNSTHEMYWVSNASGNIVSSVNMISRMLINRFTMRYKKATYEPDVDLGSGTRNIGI

[2] = tested on: dengue type 2 virus subgenomic replicon (BHK-pD2hRucPac); assay: Antiviral (replicon) assay, Renilla luciferase; format: cell-based
[3] = Cell viability (CellTiter-Glo) in replicon assay; details: hamster, BHK-pD2hRucPac cells (dengue replicon cells), Replicon CC50, text
[4] = biological target: yellow fever virus capping enzyme (Yellow fever virus, UniProt P03314); assay: biochemical; format: binding, yellow fever virus (strain 17D); details: read-out: FP_YF_KI_AVG_YF_M
BHK-pD2hRucPac cells = assay: Cell viability (CellTiter-Glo) in replicon assay; details: read-out: Replicon Assay_CC50_M; Table 2-1
[5] = biological target: T1, dengue virus capping enzyme; assay: biochemical; format: binding, dengue virus type 2 (strain 16681); details: read-out: FP_DEN_Ki_AVG_DEN_M
[6] = Table 2-1, read-out: Replicon Assay_EC50_M

Chain of yellow fever virus capping enzyme (P03314 2507-2774 limits assumed): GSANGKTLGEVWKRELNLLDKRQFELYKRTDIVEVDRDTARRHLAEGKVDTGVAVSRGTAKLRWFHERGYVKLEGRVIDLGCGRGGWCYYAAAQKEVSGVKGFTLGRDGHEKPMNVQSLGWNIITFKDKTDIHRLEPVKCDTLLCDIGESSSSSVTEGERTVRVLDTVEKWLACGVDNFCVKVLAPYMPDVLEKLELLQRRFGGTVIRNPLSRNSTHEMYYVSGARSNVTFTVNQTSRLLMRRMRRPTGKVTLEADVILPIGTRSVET

SMILES	HTS Activity [1]	EC50 ([2]; Dengue virus, 72 h, read-out: Replicon EC50, 72 hours) [µM]	CC50 at 72 h [3] [µM]	EC50 [2, 6] [µM]	Ki [4] [µM]	CC50 (BHK-pD2hRucPac cells) [µM]	Ki [5] [µM]
O=C(O)CN1C(=O)/C(=C/c2ccc(OCc3ccccc3)cc2)SC1=S [BG-170]	W (key: Weak (W)=50%-75% reduction in FP signal; Moderate (M)=76%-90% reduction; Strong (S)=>90% reduction)						
NC(=O)c1ncn([C@@H]2O[C@H](CO)[C@@H](O)[C@H]2O)n1 [Ribavirin, reference compound]		12	49				
O=C(O)CN1C(=O)/C(=C/c2ccc(Oc3ccccc3)cc2)SC1=S [BG-115]	M (key: Weak (W)=50%-75% reduction in FP signal; Moderate (M)=76%-90% reduction; Strong (S)=>90% reduction)						
O=C(O)C(Cc1ccccc1)N1C(=O)C(=CC=Cc2ccccc2)SC1=S (stereo not drawn) [BG138]				32	4	33	3
CCOc1ccc(N2C(=O)C(=Cc3ccccc3C(=O)O)SC2=S)cc1 [BG126]				52	19	51	17
CC(C)N1C(=O)SC(=Cc2ccccc2OCc2ccc(C(=O)O)cc2)C1=O [BG166]				28	14	33	7
COc1c(I)cc(I)cc1/C=C1\SC(=S)N(CC(=O)O)C1=O [BG308]				97	4	276	2
CC(C)c1ccc(/C=C2\SC(=S)N(CC(=O)O)C2=O)cc1 [BG182]				80	17	93	18
CCOc1cc(/C=C2\SC(=S)NC2=O)ccc1OS(=O)(=O)c1ccccc1[N+](=O)[O-] [BG169]				26	2	29	2
Cc1cccc(N2C(=O)/C(=C/c3ccc(C(=O)O)cc3)SC2=S)c1C [BG128]				45	13	42	11
O=C(O)CCN1C(=O)C(=Cc2ccc(-c3ccccc3[N+](=O)[O-])o2)SC1=S [BG139]				51	7	56	5
CC(C)C(C(=O)O)N1C(=O)/C(=C/c2ccccc2Cl)SC1=S (stereo not drawn) [BG134]				61	15	66	15
O=C(O)CN1C(=O)/C(=C\c2ccc(-c3ccc(Cl)cc3Cl)o2)SC1=S [2044-5240]	M (key: Weak (W)=50%-75% reduction in FP signal; Moderate (M)=76%-90% reduction; Strong (S)=>90% reduction)						
O=C(CN1C(=O)C(=Cc2ccccc2Cl)SC1=S)Nc1cccc(C(=O)O)c1 [BG123]				75	5	103	4
COc1ccccc1C=C1SC(=S)N(C(Cc2ccccc2)C(=O)O)C1=O (racemic) [BG101]				42	8	46	9
COc1cc(/C=C2\SC(=O)N(Cc3ccc(F)cc3)C2=O)c(Br)cc1OCC(=O)O [BG163]				32	9	38	5
O=C(CN1C(=O)C(=Cc2ccccc2Cl)SC1=S)Nc1ccc(C(=O)O)cc1 [BG119]				42	5	58	4
O=C(CCN1C(=O)C(=Cc2ccc(Cl)cc2)SC1=S)Nc1cccc(C(=O)O)c1 [BG121]				33	5	39	3
COc1c(I)cc(I)cc1/C=C1\SC(=S)N(CC(=O)O)C1=O [BG-5]	S (key: Weak (W)=50%-75% reduction in FP signal; Moderate (M)=76%-90% reduction; Strong (S)=>90% reduction)						
O=C(CN1C(=O)/C(=C/c2ccccc2F)SC1=S)Nc1ccccc1C(=O)O [BG132]				114	3	50	3
